The values below are quoted from earlier work in patent US20180280305A1 (Bayer HealthCare LLC, priority 2015, published 2018).

Each structure is given as a SMILES string.

The conditions of this data set: pain conditions, non-prescription (OTC) setting.

As to `COc1ccc2cc([C@H](C)C(=O)O)ccc2c1` [naproxen sodium], the lowest effective dose is listed as 220 mg.
